CCCCCCCCCCCC[N+](C)(C)CCOc1ccccc1.[Br-]
solubility (mole fraction)
Conditions	283.15 K	288.15 K	293.15 K	298.15 K	303.15 K	308.15 K	313.15 K	318.15 K	323.15 K
in DMAc	0.0168	0.0216	0.0306	0.0416	0.0492	0.0659	0.0786	0.105	0.121
in DMF	0.0238	0.0292	0.039	0.0467	0.0609	0.0714	0.0861	0.115	0.132
in DMSO	–	–	0.037	0.045	0.0551	0.0668	0.0826	0.103	0.124
in NMP	0.0215	0.0284	0.042	0.0531	0.0702	0.0854	0.108	0.137	0.169
in acetonitrile	0.00445	0.00562	0.00743	0.00991	0.0135	0.0188	0.0277	0.0415	0.0625
in ethanol	0.0832	0.107	0.13	0.157	0.179	0.204	0.227	0.251	0.275
in isobutanol	–	0.092	0.118	0.145	0.175	0.196	0.224	0.248	0.287
in isopropanol	0.0234	0.043	0.07	0.105	0.139	0.17	0.199	0.228	0.258
in n-butanol	0.0833	0.108	0.134	0.157	0.181	0.224	0.263	0.306	0.346
in n-pentanol	0.0801	0.108	0.13	0.164	0.192	0.232	0.272	0.329	0.373
in n-propanol	0.0834	0.107	0.131	0.157	0.181	0.211	0.238	0.263	0.287
in tert-butanol	–	–	–	0.0866	0.127	0.165	0.198	0.241	0.273
